Experimental data published in patent publication US7138361B2, “Herbicidal heterocycles” (E. I. du Pont de Nemours and Company, priority 2000, dated 2006).

Legend:
Format in all cases: in vivo
[1] = tested on: Sunflower; test: Test C preemergence; conditions: Rate 62 g/ha, scale 0 to 100
[2] = tested on: goosegrass (Eleusine indica); test: Test C preemergence; conditions: for Plant response rating (0 to 100), Goosegrass: Rate 500 g/ha, visual evaluation after 12 to 14 days
Summary of the method: (§1)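 Compounds in non-phytotoxic solvent with surfactant applied preemergence to planted seeds and postemergence to plants at 1- to 4-leaf stage (2–18 cm). Kept in greenhouse 12–14 days, then visually rated against controls on a 0 (no effect) to 100 (complete control) scale.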

[3] = tested on: morningglory (Ipomoea hederacea); test: Test C preemergence; conditions: for Plant response rating (0 to 100), Morningglory: Rate 500 g/ha, visual evaluation after 12 to 14 days
Summary of the method: as §1

[4] = tested on: yellow nutsedge (Cyperus esculentus); test: Test C preemergence; conditions: for Plant response rating (0 to 100), Nutsedge: Rate 500 g/ha, visual evaluation after 12 to 14 days
Summary of the method: as §1

[5] = tested on: crabgrass (Digitaria sanguinalis); test: Test C preemergence; conditions: for Plant response rating (0 to 100), Crabgrass: Rate 500 g/ha, visual evaluation after 12 to 14 days
Summary of the method: as §1

[6] = tested on: lambsquarters (Chenopodium album); test: Test C postemergence
Summary of the method: as §1

[7] = tested on: giant foxtail (Setaria faberii); test: Test C postemergence
Summary of the method: as §1

[8] = tested on: pigweed (Amaranthus retroflexus); test: Test C postemergence
Summary of the method: as §1

[9] = tested on: Surinam grass (Brachiaria decumbens); test: Test C postemergence
Summary of the method: as §1

[10] = tested on: morningglory (Ipomoea hederacea); test: Test C postemergence
Summary of the method: as §1

[11] = tested on: common ragweed (Ambrosia elatior); test: Test C postemergence
Summary of the method: as §1

[12] = tested on: corn (Zea mays); test: Test C postemergence
Summary of the method: as §1

[13] = tested on: bermudagrass (Cynodon dactylon); test: Test C postemergence
Summary of the method: as §1

[14] = tested on: barnyardgrass (Echinochloa crus-galli); test: Test B flooded paddy test; conditions: Rate 1000 g/ha, scale of 0 to 100 where 0 is no effect and 100 is complete control, visually evaluated after 13 to 15 days
Summary of the method: (§2)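 2-leaf plants, flooded paddy; greenhouse 13–15 d post-treatment; visual rating vs controls, 0–100 scale (0 = no effect, 100 = complete control); dash = no result.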

[15] = tested on: duck salad (Heteranthera limosa); test: Test B flooded paddy test; conditions: Rate 1000 g/ha, scale of 0 to 100 where 0 is no effect and 100 is complete control, visually evaluated after 13 to 15 days
Summary of the method: as §2

[16] = tested on: rice (Oryza saliva); test: Test B flooded paddy test; conditions: Rate 1000 g/ha, scale of 0 to 100 where 0 is no effect and 100 is complete control, visually evaluated after 13 to 15 days
Summary of the method: as §2

[17] = tested on: smallflower flatsedge (Cyperus difformis); test: Test B flooded paddy test; conditions: Rate 1000 g/ha, scale of 0 to 100 where 0 is no effect and 100 is complete control, visually evaluated after 13 to 15 days
Summary of the method: as §2

[18] = Rate 125 g/ha, scale 0 to 100, 0 no effect, 100 complete control
[19] = preemergence, Rate 62 g/ha, scale 0 to 100
[20] = preemergence, Rate 250 g/ha, scale 0 to 100, 0 no effect, 100 complete control
[21] = Rate 250 g/ha, scale 0 to 100 (0 no effect, 100 complete control)
[22] = Rate 500 g/ha, scale 0 to 100 (0 no effect, 100 complete control)

CCCC(C)c1ccn(C2OCN(c3cccc(OC(F)(F)F)c3)C2=O)n1 (centres unmarked) [Compound 91]
Plant response rating, Sunflower [1]: 0
Plant response rating, Goosegrass [2, 18]: 100
Plant response rating, Goosegrass [2, 19]: 90
Plant response rating (0 to 100), Goosegrass ([2]; preemergence): 100
Plant response rating, Goosegrass [2, 20]: 100
Plant response rating, Morningglory [3, 18]: 0
Plant response rating, Morningglory [3, 19]: 0
Plant response rating (0 to 100), Morningglory ([3]; preemergence): 0
Plant response rating, Morningglory [3, 20]: 0
Plant response rating, Nutsedge [4, 18]: 0
Plant response rating, Nutsedge [4, 19]: 0
Plant response rating (0 to 100), Nutsedge ([4]; preemergence): 0
Plant response rating, Nutsedge [4, 20]: 0
Plant response rating, Crabgrass [5, 18]: 100
Plant response rating, Crabgrass [5, 19]: 100
Plant response rating (0 to 100), Crabgrass ([5]; preemergence): 100
Plant response rating, Crabgrass [5, 20]: 100
Plant response rating, Lambsquarters ([6]; Rate 62 g/ha, scale 0 to 100): 100
Plant response rating, Lambsquarters [6, 18]: 100
Plant response rating, Lambsquarters [6, 21]: 100
Plant response rating, Lambsquarters [6, 22]: 100
Plant response rating, Foxtail, Giant ([7]; Rate 62 g/ha, scale 0 to 100): 20
Plant response rating, Foxtail, Giant [7, 18]: 20
Plant response rating, Foxtail, Giant [7, 21]: 40
Plant response rating, Foxtail, Giant [7, 22]: 40
Plant response rating, Pigweed ([8]; Rate 62 g/ha, scale 0 to 100): 70
Plant response rating, Pigweed [8, 18]: 70
Plant response rating, Pigweed [8, 21]: 90
Plant response rating, Pigweed [8, 22]: 100
Plant response rating, Surinam grass ([9]; Rate 62 g/ha, scale 0 to 100): 20
Plant response rating, Surinam grass [9, 18]: 20
Plant response rating, Surinam grass [9, 21]: 30
Plant response rating, Surinam grass [9, 22]: 30
Plant response rating, Morningglory ([10]; Rate 62 g/ha, scale 0 to 100): 0
Plant response rating, Morningglory [10, 18]: 0
Plant response rating, Morningglory [10, 21]: 60
Plant response rating, Morningglory [10, 22]: 90
Plant response rating, Ragweed, Common ([11]; Rate 62 g/ha, scale 0 to 100): 0
Plant response rating, Ragweed, Common [11, 18]: 0
Plant response rating, Ragweed, Common [11, 21]: 0
Plant response rating, Ragweed, Common [11, 22]: 40
Plant response rating, Corn ([12]; Rate 62 g/ha, scale 0 to 100): 0
Plant response rating, Corn [12, 18]: 0
Plant response rating, Corn [12, 21]: 0
Plant response rating, Corn [12, 22]: 0
Plant response rating, Bermudagrass ([13]; Rate 62 g/ha, scale 0 to 100): 20
Plant response rating, Bermudagrass [13, 18]: 20
Plant response rating, Bermudagrass [13, 21]: 40
Plant response rating, Bermudagrass [13, 22]: 60

CCC(C)c1ccn(C2OCN(c3cccc(C(F)(F)F)c3)C2=O)n1 (centres unmarked) [Compound 24]
Plant response rating, Barnyardgrass [14]: 100
Plant response rating, Ducksalad [15]: 100
Plant response rating, Rice [16]: 90
Plant response rating, Flatsedge [17]: 100

CCCOc1cc(N2CCC(n3ccc(C(C)(C)C)n3)C2=O)ccc1C (centres unmarked) [Compound 107]
Plant response rating, Sunflower [1]: 0
Plant response rating, Goosegrass [2, 18]: 70
Plant response rating, Goosegrass [2, 19]: 10
Plant response rating (0 to 100), Goosegrass ([2]; preemergence): 100
Plant response rating, Goosegrass [2, 20]: 80
Plant response rating, Morningglory [3, 18]: 0
Plant response rating, Morningglory [3, 19]: 0
Plant response rating (0 to 100), Morningglory ([3]; preemergence): 100
Plant response rating, Morningglory [3, 20]: 0
Plant response rating, Nutsedge [4, 18]: 0
Plant response rating, Nutsedge [4, 19]: 0
Plant response rating (0 to 100), Nutsedge ([4]; preemergence): 0
Plant response rating, Nutsedge [4, 20]: 0
Plant response rating, Crabgrass [5, 18]: 100
Plant response rating, Crabgrass [5, 19]: 100
Plant response rating (0 to 100), Crabgrass ([5]; preemergence): 100
Plant response rating, Crabgrass [5, 20]: 100
Plant response rating, Lambsquarters ([6]; Rate 62 g/ha, scale 0 to 100): 50
Plant response rating, Lambsquarters [6, 21]: 100
Plant response rating, Lambsquarters [6, 22]: 100
Plant response rating, Foxtail, Giant ([7]; Rate 62 g/ha, scale 0 to 100): 0
Plant response rating, Foxtail, Giant [7, 21]: 0
Plant response rating, Foxtail, Giant [7, 22]: 0
Plant response rating, Pigweed ([8]; Rate 62 g/ha, scale 0 to 100): 50
Plant response rating, Pigweed [8, 21]: 55
Plant response rating, Pigweed [8, 22]: 90
Plant response rating, Surinam grass ([9]; Rate 62 g/ha, scale 0 to 100): 0
Plant response rating, Surinam grass [9, 18]: 0
Plant response rating, Surinam grass [9, 21]: 0
Plant response rating, Surinam grass [9, 22]: 0
Plant response rating, Morningglory ([10]; Rate 62 g/ha, scale 0 to 100): 60
Plant response rating, Morningglory [10, 21]: 100
Plant response rating, Morningglory [10, 22]: 100
Plant response rating, Ragweed, Common [11, 22]: 50
Plant response rating, Corn ([12]; Rate 62 g/ha, scale 0 to 100): 0
Plant response rating, Corn [12, 21]: 0
Plant response rating, Corn [12, 22]: 0
Plant response rating, Corn ([12]; scale 0 to 100): 0
Plant response rating, Bermudagrass ([13]; Rate 62 g/ha, scale 0 to 100): 0
Plant response rating, Bermudagrass [13, 18]: 0
Plant response rating, Bermudagrass [13, 21]: 0
Plant response rating, Bermudagrass [13, 22]: 0
